This is an account of results in patent US20100249419A1, “UTILIZATION OF NOVEL COMPOUNDS WITH AMYLOID AFFINITY AND METHOD OF PRODUCING THE SAME” (NIHON MEDI-PHYSICS CO., LTD., priority 2007, published 2010).

A word on the IC50: it is the concentration that gives 50% inhibition. A lower IC50 goes with greater potency in that assay.

Data set [1] is described as follows: Partition coefficient based on the octanol extraction method. It counts as physicochemical. The following applies: octanol / 10 mmol/L phosphate buffer (pH 7.4); Table 6, Examples 20-21. The method, then:
Partition coefficients based on the octanol extraction method (hereinafter referred to as log Poctanol) were measured, which are generally known as an indicator of permeability of compounds through the blood-brain barrier (hereinafter referred to as BBB).
A diethyl ether solution of Compound 1 prepared in Example 3 (Example 8), a diethyl ether solution of Compound 2 prepared in Example 6 (Example 9), and a diethyl ether solution of [^123I]-IMPY prepared in Reference Example 1 (Comparative Example 4) were each diluted with 10 mg/mL ascorbic acid-containing physiological saline solution, and adjusted to a radioactive concentration of 20-30 MBq/mL. To 2 mL of octanol, 10 μL each of the prepared sample solutions was added, 2 mL of 10 mmol/L phosphate buffer (pH 7.4) was added, followed by stirring for 30 seconds. After the mixture was centrifuged with a low-speed centrifuge (2000 rpm×60 min.), the octanol layer and the water layer were sampled each in an amount of 1 mL, and subjected to measurement of radioactivity count with an autowell gamma system (Type: ARC-301B, manufactured by Aloka). Using the obtained radioactivity count, log Poctanol was calculated in accordance with the equation (2).
A diethyl ether solution (Example 20) of Compound 4 prepared in Example 16, a diethyl ether solution (Example 21) of Compound 6 prepared in Example 19, and a diethyl ether solution (Comparative Example 7) of [^123I]-IMPY were each diluted with a 10 mg/mL ascorbic acid-containing physiological saline solution to adjust to a radioactive concentration of 20-30 MBq/mL. To 2 mL of octanol, 10 μL each of the prepared sample solution was added, and 2 mL of 10 mmol/L phosphate buffer (pH 7.4) was further added, followed by stirring for 30 seconds. After the mixture was centrifuged with a low-speed centrifuge (2000 rpm×60 min.), the octanol layer and the water layer were sampled each in an amount of 1 mL, and subjected to measurement of radioactivity count with an autowell gamma system (Type: ARC-301B, manufactured by Aloka). Using the obtained radioactivity count, logPoctanol was calculated in accordance with the equation (4).

Data set [2] can be described thus: Transferability into brain and clearance. The format is in vivo, male Wistar rats. The following applies: intravenous injection, rats, Table 7. The method, then: Using Compound 1 (Example 10) and Compound 2 (Example 11), a time course change of radioactive accumulation in brain of male Wistar rats (7-week old) was measured.
A diethyl ether solution of Compound 1 (Example 10) prepared in Example 3, a diethyl ether solution of Compound 2 (Example 11) prepared in Example 6 and a diethyl ether solution of [^123I]-IMPY (Comparative Example 5) prepared in Reference Example 1 were each diluted with 10 mg/mL ascorbic acid-containing physiological saline solution to adjust to a radioactive concentration of 8-12 MBq/mL. 0.05 mL each of the prepared sample solutions was injected under thiopental anesthesia into the tail vein of the rats. The rats were sacrificed by bleeding from abdominal artery, and brains were removed and subjected to measurement of mass of brains and further subjected to measurement of radioactivity (hereinafter referred to as A in this Example) with a single channel analyzer (detector type: SP-20 manufactured by OHYO KOKEN KOGYO Co., Ltd.) 2, 5, 30 and 60 minutes after the injection. Further, the radioactivity level of the rest of the whole body was measured in the same manner as above (hereinafter referred to as B in this Example). Using these measurement results, radioactive distribution per unit weight of brain (% ID/g) at the respective time points were calculated in accordance with the following formula (3).
Three animals were used for the experiment at the respective time points.
Using Compound 4 and Compound 6, a time course change of radioactive accumulation in brain of male Wistar rats (7-week old) was measured.
Compound 4 (Example 22), Compound 6 (Example 23) and a solution of [^123I]-IMPY (Comparative Example 8) prepared above in Reference Example 1 were each diluted with a 10 mg/mL ascorbic acid-containing physiological saline solution to prepare solutions (20-31 MBq/mL in radioactive concentration). 0.05 mL each of the prepared sample solutions was injected under thiopental anesthesia into the tail vein of the respective Wistar rat (7-week old). The rats were sacrificed by bleeding from abdominal artery, and brains were removed and subjected to measurement of mass of brains and further subjected to measurement of radioactivity (hereinafter referred to as A in this Example) with a single channel analyzer (detector type: SP-20 manufactured by OHYO KOKEN KOGYO Co., Ltd.) 2, 5, 30 and 60 minutes after the injection. Further, the radioactivity level of the rest of the whole body was measured in the same manner as above (hereinafter referred to as B in this Example). Using these measurement results, radioactive distribution per unit weight of brain (% ID/g) at the respective time points were calculated in accordance with the following formula (5).

Data set [3] deals with T1, aggregated Aβ (Aβ1-42) injected into amygdaloid nucleus (Homo sapiens, UniProt P05067).
T1 construct: Aβ1-42 (manufactured by Wako) was dissolved in phosphate buffer (pH 7.4); purchased Wako
Put plainly: Confirmation of imaging of amyloid in brain (ex vivo autoradiogram, Aβ1-42). Set-up: species or system male Wistar rat. The following applies: brain slice 60 minutes after tail vein injection. The method, then:
The following experiment was carried out in order to examine whether amyloid in brain can be imaged by the compound of the present invention.
(1) Aβ1-42 (manufactured by Wako) was dissolved in phosphate buffer (pH 7.4) and shaken at 37° C. for 72 hours, to obtain a 1 mg/mL suspension of aggregated Aβ (hereinafter referred to as amyloid suspension in the Examples).
(2) 2.5 μL (corresponding to […]) of the amyloid suspension was injected into an amygdaloid nucleus on one side of a male Wistar rat (7-week old). As a control, 2.5 μL of a phosphate buffered physiological saline solution (pH 7.4) was injected into an amygdaloid nucleus on the other side of the rat. The rats were examined 1 day after the injection of the amyloid suspension and the phosphate buffered physiological saline solution (pH 7.4).
(3) Compound 1 was dissolved in a 10 mg/mL ascorbic acid-containing physiological saline solution to obtain a sample solution (22 MBq/mL in radioactivity concentration in the sample solution). This solution was injected under thiopental anesthesia into the rat through the tail vein (dosage: 0.5 mL, dosed radioactivity: 11-13 MBq equivalent).
(4) Brain was removed 60 minutes after the injection to prepare a brain slice of 10 μm in thickness with a microtome (type: CM3050S, manufactured by LEICA). The brain slice was exposed to an imaging plate for 20 hours, and then image analysis was carried out by use of a Bio-imaging Analyzer (type: BAS-2500; manufactured by FUJIFILM Corporation).
(5) After the completion of the image analysis using the Bio-imaging Analyzer, […]
Thus, it was confirmed that amyloid was deposited on the slice (FIG. 6b).
The same procedures as in Example 12 were performed except using a solution of Compound 2 in a 10 mg/mL ascorbic acid as a sample solution (the radioactive concentration of the sample solution was 25 MBq/mL).
(1) Aβ1-42 (manufactured by Wako) was dissolved in phosphate buffer (pH 7.4) and shaken at 37° C. for 72 hours, to obtain 1 mg/mL of a suspension of aggregated Aβ (hereinafter referred to as amyloid suspension in the Examples).
(3) A sample solution (30 MBq/mL in radioactivity concentration, Example 24) in which Compound 4 was dissolved in a 10 mg/mL ascorbic acid-containing physiological saline solution and a sample solution (30 MBq/mL in radioactivity concentration, Example 25) in which Compound 6 was dissolved in a 10 mg/mL ascorbic acid-containing physiological saline solution were prepared. This solution was injected under thiopental anesthesia into the rat through the tail vein (dosage: 0.5 mL, dosed radioactivity: 11-15 MBq equivalent).
Thus, it was confirmed that amyloid was deposited on the slice (FIG. 12 and FIG. 13).

Data set [4] has as its system Salmonella typhimurium TA98. In words: Reverse mutation test (Ames test), TA98. It counts as cell-based. The method, then: (§1) In order to examine gene mutagenicity of Compounds 3, 5 and 8, reverse mutation test using Salmonella typhimurium TA98 and TA100 (hereinafter referred to as Ames test) was conducted.
(§2) The test was conducted without addition of S9mix and with addition of S9mix. Dimethylsulfoxide (hereinafter referred to as DMSO) was used as a negative control. A positive control was 2-(2-furyl)-3-(5-nitro-2-furyl)acrylamide (hereinafter referred to as AF-2) in case S9mix was not added, and 2-aminoanthracene (hereinafter referred to as 2-AA) in case S9mix was added.
(§3) As a sample solution to be added to a test plate, each compound was dissolved in DMSO to prepare a solution at a concentration of 50 mg/mL, and further, each solution was diluted with DMSO to prepare a solution with 7 dosage (geometric ratio 3). As a sample solution for preparing a sample of positive control, when TA98 was used as a test strain without addition of S9mix, a solution of AF-2 (compound concentration: 1 μg/mL) in DMSO was prepared; when TA100 was used as a test strain without addition of S9mix, a solution of AF-2 (compound concentration: 0.1 μg/mL) in DMSO was prepared; when TA98 was used as a test strain with addition of S9mix, a solution of 2-AA (compound concentration: 5 μg/mL) in DMSO was prepared; and when TA100 was used as a test strain with addition of S9mix, a solution of 2-AA (compound concentration: 10 μg/mL) in DMSO was prepared.
(§4) After each sample solution to be examined and a test strain (TA98 or TA100) were mixed together so as to make the addition amount of each sample to be 0.1 mL/plate, the mixture was multilayered using soft agar on a medium of a test plate, and then incubated at 37° C. for 48 hours. Separately, after each sample solution to be examined, S9mix and a test strain were mixed together so as to make the addition amount of each sample to be 0.1 mL/plate, the mixture was multilayered using soft agar on a medium of a test plate, and then incubated at 37° C. for 48 hours. On the other hand, only DMSO was used as a sample solution to perform the same procedure as above for the negative control. […]
Background: The Ames test uses bacterial strains that need an amino acid and regain growth without it when mutated back.

Data set [5] has as its system Salmonella typhimurium TA100. In words: Reverse mutation test (Ames test), TA100. It counts as cell-based. The method, then:
as §1, §2, §3, §4

For data set [6], the target named is T2, aggregated Aβ (Aβ1-42) amyloid (Homo sapiens, UniProt P05067).
T2 construct: Aβ1-42 (manufactured by Wako) was dissolved in phosphate buffer (pH 7.4); purchased Wako
Put plainly: In vitro binding test: inhibition of [^125I]3′-I-BTA-0 binding to amyloid. The note with it: [^125I]3′-I-BTA-0 400 pmol/L, amyloid 1 μmol/L, 22° C., 3 hours. The method, then:
Affinity of the present compounds with amyloid was examined by the following in vitro binding tests.
The measured radioactivity level was defined as the background radioactivity level, and used in the calculation of the inhibition ratio (hereinafter referred to as BG).
(9) Using the radioactivity levels measured above in (7) and (8), the inhibition ratio was determined by the following formula (1).
A graph in which values converted by probit transformation from the obtained inhibition ratios were plotted relative to logarithms of concentrations of compounds for evaluation was prepared to obtain an approximate straight line by the least square method.

The conditions of data set [7]: [^125I]-labeled compounds, normal mice; cited from earlier work.
Setting [8] is: TA98, without addition of S9mix.
[9] abbreviates: TA100, without addition of S9mix.

T2 sequence (P05067 672-713): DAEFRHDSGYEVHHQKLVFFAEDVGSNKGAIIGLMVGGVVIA
T1 sequence (P05067 672-713): as above

Compound “2-[3′-(2″-hydroxyethoxy)phenyl]-6-[^123I]iodoimidazo[1,2-a]pyridine [Compound 4]” came in with a logPoctanol value in data set [1] of 2.5. In addition, the “Radioactive distribution per unit weight of brain” value is recorded as 0.56 % ID/g in data set [2] (After 2 min.), 0.28 % ID/g in data set [2] (After 5 min.), 0.04 % ID/g in data set [2] (After 30 min.) and 0.01 % ID/g in data set [2] (After 60 min.). Moreover, the “Accumulation of radioactivity in amygdaloid nucleus on the amyloid-injected side” value in data set [3] is “marked accumulation of radioactivity”.
As to `OCCOc1cccc(-c2cn3cc(I)ccc3n2)c1` [Compound 5, 2-[3′-(2″-hydroxyethoxy)phenyl]-6-iodoimidazo[1,2-a]pyridine], the Mutagenicity result is listed as “Negative” in data set [4] (TA98, with addition of S9mix); “Negative” in data set [4] (setting [8]); “Negative” in data set [5] (TA100, with addition of S9mix); “Negative” in data set [5] (setting [9]).
Take `CCOc1ccc(-c2cn3cc(I)ccc3n2)cc1` [Compound 8, 2-(4′-ethoxyphenyl)-6-iodoimidazo[1,2-a]pyridine]: the Mutagenicity entry in data set [4] (TA98, with addition of S9mix) is listed as “Negative”; in data set [4] (setting [8]), “Negative”; in data set [5] (TA100, with addition of S9mix), “Negative”; in data set [5] (setting [9]), “Negative”.
As to `CCC[CH2][Sn]([CH2]CCC)([CH2]CCC)[c]1ccc2nc(-c3ccc(OCCO)cc3)cn2c1` [Compound 9, 6-tributylstannyl-2-[4′-(2″-hydroxyethoxy)phenyl]imidazo[1,2-a]pyridine], the Mutagenicity entry was “Negative” in data set [4] (TA98, with addition of S9mix); “Negative” in data set [4] (setting [8]); “Negative” in data set [5] (TA100, with addition of S9mix); “Negative” in data set [5] (setting [9]).
In data set [6], `Nc1c(/N=N/c2ccc(-c3ccc(/N=N/c4cc(S(=O)(=O)O)c5ccccc5c4N)cc3)cc2)cc(S(=O)(=O)O)c2ccccc12` [Congo Red, reference compound] gave an IC50 greater than 1000 nM.
Consider `CN(C)c1ccc(-c2nc3ccc(I)cc3o2)cc1` [IBOX, 6-iodo-2-[4′-(N,N-dimethylamino)phenyl]benzoxazole], for which, in data set [7], the “Clearance from normal tissues” value is “insufficient in clearance from normal tissues”.
As for `CN(C)c1ccc(-c2nc3ccc(I)cc3s2)cc1` [TZDM, 6-iodo-2-[4′-(N,N-dimethylamino)phenyl]benzothiazole], in data set [7], the “Clearance from normal tissues” value is recorded as “insufficient in clearance from normal tissues”.
Take `CN(C)c1ccc(/C=C/c2ccc(I)cc2)cc1` [m-I-SB, (E)-4-dimethylamino-4′-iodostilbene]: the “Clearance from normal tissues” value in data set [7] is “insufficient in clearance from normal tissues”.
